In PubChem BioAssay (NCI) one finds TGI data, which are given here for 20 molecules.

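How tested: cells in 96-well plates exposed to compound for 48 hours at five concentrations. Definition used: TGI = concentration required for complete inhibition of growth.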 Some results are limits rather than exact numbers.

Common to all, as to assay: NCI anticancer screen, dose series, 48 h
Assay [1] concerns HS 578T breast.
In assay [2] the test system is UACC-62 melanoma.
The test system of assay [3] is OVCAR-4 ovarian.
Assay [4] concerns COLO 205 colon.
Assay [5] deals with MALME-3M melanoma.
In assay [6] the test system is OVCAR-5 ovarian.
Assay [7] deals with SK-MEL-2 melanoma.
The test system of assay [8] is SF-268 CNS.
For assay [9], the system named is BT-549 breast.
For assay [10], the system named is HOP-62 NSCLC.

With `C[C@H]1[C@H](C)CC[C@]2(C(=O)OC3OC(CO)C(O)C(O)C3O)CC[C@]3(C)C(=CC[C@@H]4[C@@]5(C)C[C@H]6OC(=O)c7cc(O)c(O)c(O)c7-c7c(cc(O)c(O)c7O)C(=O)O[C@@H]6C(CO)(CO)[C@@H]5CC[C@]43C)[C@H]12` (stereo not given in full), the TGI in assay [1], in [2], in assay [3], in assay [4], in assay [5] and in assay [6] was > 100 µM each time. Further, the TGI in [7], in [8], in assay [9] and in assay [10] was > 100 µM each time.
`Cc1cc(NS(=O)(=O)c2ccc(NC(NC(=O)C(C(F)(F)F)C(F)(F)F)(C(F)(F)F)C(F)(F)F)cc2)no1`: the TGI in assay [1], in assay [2], in assay [3], in assay [4], in assay [5] and in assay [6] was > 100 µM throughout. The TGI in [7], in assay [8], in assay [9] and in assay [10] was > 100 µM each time.
Turning to `O=c1c2ccccc2sc2ccccc12`, the TGI in [1], in assay [2], in assay [3], in assay [4], in assay [5] and in assay [6] was > 100 µM each time. For the same molecule, the TGI in [7], in assay [8], in [9] and in [10] was > 100 µM in each case.
Regarding `CCN(CC)CCO/N=C1\CC[C@H]2[C@@H]3CCc4cc(OC)ccc4[C@H]3CC[C@]12C`, the TGI in assay [1] amounted to 7.36 µM; in assay [2] it was 2.02 µM; in [3], 22.4 µM; in [4], 3.03 µM; in assay [5], 3.28 µM; in [6] it was 12.4 µM. Also, the TGI amounted to 5.07 µM in [7], 7.05 µM in assay [8], 19 µM in assay [9] and 3.73 µM in assay [10].
As for `O=S1(=O)c2cnccc2NC(=NCc2ccccc2)N1c1ccccc1`, the TGI in assay [1], in [2], in [3], in assay [4], in assay [5] and in [6] was > 100 µM each time. The TGI in assay [7], in [8], in [9] and in assay [10] was > 100 µM each time.
In the case of `COC(=O)[C@H](Cc1ccccc1)NC(=O)N(CCC#N)CCN(C(=O)N[C@@H](Cc1ccccc1)C(=O)OC)c1ccccc1`, the TGI was > 100 µM in assay [1]; 13.6 µM in [2]; 69.2 µM in assay [3]; 56.2 µM in assay [4]; > 100 µM in assay [6]; 39.3 µM in assay [7]. In addition, the TGI in [8] is 45.6 µM; in assay [9], > 100 µM; in [10] it was > 100 µM.
As for `COc1cc([N+](=O)[O-])c(OC)c2c(Nc3ccc(S(=O)(=O)O)c4cc(S(=O)(=O)O)cc(S(=O)(=O)O)c34)cc(C)nc12`, the TGI in [1], in assay [2], in assay [4], in assay [5], in assay [6] and in assay [7] was > 100 µM throughout. Further, the TGI in assay [8], in [9] and in [10] was > 100 µM each time.
`COC(=O)C1(O)C(c2ccccc2)=NC2(C)CCCC21` (stereo not given): the TGI in assay [1], in assay [2], in assay [3], in assay [4], in assay [5] and in assay [6] was > 100 µM each time. Besides, the TGI in assay [7], in [8], in assay [9] and in assay [10] was > 100 µM throughout.
As to `CCNc1ncnc2sc(SCc3ccccc3)nc12`, the TGI in assay [1], in assay [3], in [4], in assay [5], in assay [6] and in assay [7] was > 100 µM each time. The TGI in assay [8], in [9] and in [10] was > 100 µM throughout.
For `Cc1cccc(/C(Br)=C2/OC(=O)c3ccccc32)c1`, the TGI in [1], in [2], in assay [3], in assay [4], in assay [5] and in assay [6] was > 100 µM each time. Moreover, the TGI in assay [8], in assay [9] and in assay [10] was > 100 µM throughout.
Regarding `CCOC(=O)C1=CC(C)(C(=O)OCC)Nc2c(nc(N)[nH]c2=O)N1` (stereo not given), the TGI in [1], in assay [3], in assay [4], in assay [5], in [6] and in [7] was > 10 µM throughout. Further, the TGI in assay [8], in assay [9] and in [10] was > 10 µM throughout.
With `CC1(C)N=C2C(=O)c3c([nH]c4ccccc34)[C@]3(C)CCC1CC23` (stereo not given in full), the TGI in assay [1], in assay [3], in [4], in assay [5], in [6] and in [7] was > 6.25 µM each time. Moreover, the TGI in assay [8], in [9] and in assay [10] was > 6.25 µM in each case.
As to `Cc1cc(C)nc(NS(=O)(=O)c2ccc(NC(=O)c3cccc4c(NNc5ccc(S(=O)(=O)N=C(N)N)cc5)c5ccccc5nc34)cc2)n1`, the TGI in [1], in [2], in [3], in assay [4], in [5] and in assay [8] was > 50 µM in each case. The TGI in assay [9] and in assay [10] was > 50 µM in each case.
In the case of `CCN1C(=O)C(=C/C=C/c2ccc(N(CC)CC)cc2)C(=O)N(CC)C1=S`, the TGI in assay [1], in assay [2], in assay [3], in [4], in assay [6] and in [7] was > 100 µM in each case. For the same molecule, the TGI in assay [8] was > 100 µM; in [9] it was > 100 µM; in [10], 50.7 µM.
As for `COc1ccc(C2c3cc4c(cc3OC(NCCO)C2C)OCO4)cc1` (stereo not given), the TGI in assay [1] is 59.3 µM; in [2], > 100 µM; in [4], 36.2 µM; in assay [5], 47.7 µM; in assay [6] it was > 100 µM; in assay [7] it was 50.8 µM. Besides, the TGI in assay [8] is 72.6 µM; in [9] it was 59 µM; in [10], > 100 µM.
For `COc1ccc(NC(C)c2ccncc2)cc1` (stereo not given), the TGI in assay [1], in [3], in assay [4], in assay [5], in assay [6] and in [7] was > 100 µM each time. The TGI in [8], in [9] and in [10] was > 100 µM in each case.
`O=S1SC(=S)C2C=CC=CC21` (stereo not given): the TGI in assay [1], in assay [2], in assay [3], in [4], in assay [5] and in [6] was > 100 µM throughout. Further, the TGI in [7], in assay [8] and in assay [9] was > 100 µM in each case.
Regarding `COC(=O)N1N=C(c2ccccc2)C1c1ccccc1` (stereo not given), the TGI in assay [1] was > 100 µM; in [2] it was 63.3 µM; in [3], > 100 µM; in assay [4] it was > 100 µM; in assay [5], > 100 µM; in [6] it was > 100 µM. Moreover, the TGI in assay [7], in [8] and in assay [9] was > 100 µM throughout.
`O=C(/C=C/c1ccc2c(c1)OCO2)Cc1nc2ccccc2[nH]c1=O`: the TGI is 40 µM in assay [1]; > 100 µM in [2]; > 100 µM in assay [4]; 43.4 µM in assay [5]; > 100 µM in [6]; 50.7 µM in assay [7]. The TGI in [8] is 55.3 µM; in [9] it was > 100 µM; in assay [10] it was 35.2 µM.
Consider `COc1ccc(OC)c2sc(N3C(=O)/C(=C/c4cccc([N+](=O)[O-])c4)N=C3c3ccccc3)nc12`, for which the TGI in [1], in assay [2], in assay [4], in assay [5], in assay [6] and in [7] was > 100 µM each time. Besides, the TGI in [8], in assay [9] and in [10] was > 100 µM throughout.
